Where a name gives a salt, the structure may show the parent alone. Read-outs that look alike come from different tables or passages of the source.
Assays:
rat tail jerk = rat tail jerk assay (increase in reaction time over control); type: in vivo
Description: The compounds of this invention are also active in the rat tail jerk assay, another standard pharmacologic test for analgesic activity of the opiate-type. Such activity is manifested as an increase in the reaction time of the animal in removing (jerking) its tail from a nearby heat stimulus (a resistance wire) after drug administration compared to control time (no drug administered). Table 2 which follows gives the increased reaction times over control times produced by the compounds of this invention when administered subcutaneously. In Tables 2 and 3, column 1 gives the name of the compound; column 2, the dose; column 3, time of observation after administration of the drug; column 4, the increase in reaction time above control in seconds; and column 5, the level of significance of the results ("p" value). […] All drugs were administered as aqueous solutions. More than one value for a given dose level indicates multiple determinations. The results are not averaged.

[1] = system: writhing in mice induced by the intraperitoneal injection of acetic acid; test: mouse-writhing test (inhibition of writhing induced by intraperitoneal acetic acid); type: in vivo; details: for ED50: Mus musculus, read-out: Median inhibiting dose (I.D.50)
Description: In the Table, column 1 gives the name of the compund; column 2, the dosage in mg./kg. of mouse weight; column 3, the route of administration of the drug ("S.C." is subcutaneous and "or" is oral); and column 4, the percent inhibition found at the particular dose level. […] Median inhibiting doses (I.D.50) are also included in the Table.

morphine = test: modified rat tail jerk assay, antagonism of morphine; type: in vivo, rats
Experimental: The ability of the compounds of this invention to antagonize the action of morphine, an opiate, is shown by the following modification of the aforementioned rat tail jerk assay: The standard assay procedure is used with the exception that a 7 amps. current is used instead of a 6 amps. current in the hot wire to decrease the measurable agonist effects of the antagonist. The drugs under test are then administered to groups of rats at different dose levels at different times prior to test, with a 5 mg./kg. dose of morphine invariably being administered 10 minutes prior to test. Positive evidence of antagonism is a decreased reaction time over that to be expected from the morphine. […] Among the compounds of this invention, those in which R in Structure I is cyclopropylmethyl are the preferred antagonists, showing activity in the above test procedure. […] In a series of determinations, it was ascertained that the minimum subcutaneous dose necessary to reduce the analgesic effects of a 5 mg./kg. subcutaneous dose of morphine was in the range 2.5-5.0 mg./kg. and the minimum oral dose, 5-10 mg./kg.

[2] = prior art; cited from earlier work
[3] = 20 mg./kg. S.C., reading at 0.5 hours
[4] = 20 mg./kg. oral, reading at 0.5 hours
[5] = 100 mg./kg. S.C., reading at 0.5 hours
[6] = 100 mg./kg. oral, reading at 0.5 hours

With `Oc1cccc([C@]23CCCC[C@@H]2CN(CC2CCC2)CC3)c1` (relative stereo) [Trans-dl-1-cyclobutylmethyl-3a-(m-hydroxyphenyl)-1,2,3,3a,4,5,6,7,7a,8-decahydroisoquinoline maleate] the “Increase in Reaction Time Over Control” value (rat tail jerk; oral, 10 mg./kg., 10 min) was “.43 s”, the “Increase in Reaction Time Over Control” value (rat tail jerk; oral, 10 mg./kg., 30 min) was “.63 s” and the “Increase in Reaction Time Over Control” value (rat tail jerk; oral, 10 mg./kg., 60 min) was “.21 s”. For the same compound, the “Increase in Reaction Time Over Control” value (rat tail jerk; oral, 25 mg./kg., 30 min) was 1.71 s, the “Increase in Reaction Time Over Control” value (rat tail jerk; oral, 25 mg./kg., 60 min) was 1.04 s and the “Increase in Reaction Time Over Control” value (rat tail jerk; oral, 50 mg./kg., 30 min) was 12.42 s. For the same compound, the “Increase in Reaction Time Over Control” value (rat tail jerk; subcutaneous, 0.25 mg./kg., 30 min) was “.71 s”, the “Increase in Reaction Time Over Control” value (rat tail jerk; subcutaneous, 0.5 mg./kg., 30 min) was “.21 s” and the “Increase in Reaction Time Over Control” value (rat tail jerk; subcutaneous, 1 mg./kg., 10 min) was “.46 s”. For the same compound, the “Increase in Reaction Time Over Control” value (rat tail jerk; subcutaneous, 1 mg./kg., 30 min) was 1.63 s, the “Increase in Reaction Time Over Control” value (rat tail jerk; subcutaneous, 1 mg./kg., 60 min) was “.17 s” and the “Increase in Reaction Time Over Control” value (rat tail jerk; subcutaneous, 2 mg./kg., 10 min) was 2.17 s. For the same compound, the “Increase in Reaction Time Over Control” value (rat tail jerk; subcutaneous, 2 mg./kg., 30 min) was 2.50 s, the “Increase in Reaction Time Over Control” value (rat tail jerk; subcutaneous, 2 mg./kg., 60 min) was “.96 s” and the “Increase in Reaction Time Over Control” value (rat tail jerk; subcutaneous, 10 mg./kg., 10 min) was 17.88 s. The “Increase in Reaction Time Over Control” value (rat tail jerk; subcutaneous, 10 mg./kg., 30 min) was 23.04 s, the “Increase in Reaction Time Over Control” value (rat tail jerk; subcutaneous, 10 mg./kg., 60 min) was 22.13 s and the “% Inhibition” value ([1]; 1 mg./kg. S.C., reading at 0.5 hours) was 46%. The “% Inhibition” value ([1]; 2 mg./kg. S.C., reading at 0.5 hours) was 96%, the “% Inhibition” value [1, 3] was 100% and the “% Inhibition” value [1, 4] was 36%. For the same compound, the “% Inhibition” value [1, 5] was 100% and the “% Inhibition” value [1, 6] was 100%.

For `COc1cccc([C@]23CCCC[C@@H]2CN(CC2CC2)CC3)c1` (relative stereo) [Trans-dl-1-cyclopropylmethyl-3a-(m-methoxyphenyl)-1,2,3,3a,4,5,6,7,7a,8-decahydroisoquinoline maleate], the “Increase in Reaction Time Over Control” value (rat tail jerk; oral, 20 mg./kg., 30 min) was 1.10 s, the “Increase in Reaction Time Over Control” value (rat tail jerk; oral, 20 mg./kg., 120 min) was “.20 s” and the “Increase in Reaction Time Over Control” value (rat tail jerk; oral, 80 mg./kg., 30 min) was 8.05 s. The “Increase in Reaction Time Over Control” value (rat tail jerk; oral, 80 mg./kg., 120 min) was 1.19 s, the “Increase in Reaction Time Over Control” value (rat tail jerk; subcutaneous, 80 mg./kg., 30 min) was 1.75 s and the “Increase in Reaction Time Over Control” value (rat tail jerk; subcutaneous, 80 mg./kg., 120 min) was 1.05 s. For the same compound, the “% Inhibition” value ([1]; 10 mg./kg. S.C., reading at 0.5 hours) was 20%, the “% Inhibition” value [1, 3] was 64% and the “% Inhibition” value ([1]; 20 mg./kg. oral, reading at 0.25 hours) was 5%. For the same compound, the “% Inhibition” value [1, 4] was 13%, the “% Inhibition” value ([1]; 50 mg./kg. oral, reading at 0.25 hours) was 79% and the “% Inhibition” value ([1]; 50 mg./kg. oral, reading at 0.5 hours) was 69%. The “% Inhibition” value [1, 5] was 100%, the “% Inhibition” value ([1]; 100 mg./kg. oral, reading at 0.25 hours) was 89% and the “% Inhibition” value [1, 6] was 87%. The ED50 ([1]; sc, S.C.) was 10 to 20 mg/kg and the ED50 ([1]; oral) was 20 to 50 mg/kg.

With `COc1cccc([C@]23CCCC[C@@H]2CN(CC2CC2)CC3)c1` (relative stereo) [Trans-dl-1-cyclopropylmethyl-3a-(m-methoxyphenyl)-1,2,3,3a,4.5,6,7,7a,8-decahydroisoquinoline] the antagonism of morphine (morphine; dose not stated) was “found to antagonize morphine”.

In the case of `Oc1cccc([C@]23CCCC[C@@H]2CN(CC2CC2)CC3)c1` (stereo in doubt) [Trans-dl-1-cyclopropylmethyl-3a-(m-hydroxyphenyl)-1,2,3,3a,4,5,6,7,7a,8-decahydroisoquinoline], the “antagonism of morphine analgesia” value (morphine; 50 mg./kg. oral, 30 minutes prior to test, morphine 5 mg./kg. 10 minutes prior to test) is reported as “reduces the analgesic response to 5 mg./kg. of morphine”, the “% Inhibition” value ([1]; 2 mg./kg. S.C., reading at 0.25 hours) is reported as 43% and the “% Inhibition” value ([1]; 5 mg./kg. S.C., reading at 0.25 hours) is reported as 70%. The ED50 ([1]; sc, S.C., readings of this compound at 0.25 hours) was 2 to 5 mg/kg.

For `C=CCN1CC[C@]23c4c5ccc(OC)c4O[C@H]2[C@@H](O)C=C[C@H]3[C@H]1C5` [N-allylnorcodeine], the “opiate antagonist / agonist properties” value [2] is given as “opiate antagonist”.

For `COc1ccc2c3c1O[C@H]1[C@@H](O)C=C[C@H]4[C@@H](C2)N(C)CC[C@@]341` [codeine], the analgesic activity [2] is given as “relatively mild analgesic agonist” and the “dependance (addiction) liability” value [2] is given as “slight dependance (addiction) liability”.

In the case of `CC(=O)Oc1ccc2c3c1O[C@H]1[C@@H](OC(C)=O)C=C[C@H]4[C@@H](C2)N(C)CC[C@@]341` [heroin], the analgesic activity [2] is given as “powerful agonist” and the “dependance (addiction) liability” value [2] is given as “extremely high addiction potential”.

In the case of `C=CCN1CC[C@]23c4c5ccc(O)c4O[C@H]2[C@@H](O)C=C[C@H]3[C@H]1C5` [nalorphine, N-allylnormorphine], the “opiate antagonist / agonist properties” value [2] is listed as “highly specific ability to reverse the depressant effects of morphine”.

In the case of `CC(C)=CCN1CCC2(C)c3cc(O)ccc3CC1C2C` (stereo not shown) [pentazocine], the “dependance (addiction) liability” value [2] is given as “retain a certain degree of opiate dependance liability” and the “opiate antagonist / agonist properties” value [2] is given as “both antagonists and agonists”.

In the case of `CC1C2Cc3ccc(O)cc3C1(C)CCN2CCc1ccccc1` (stereo not shown) [phenazocine], the “dependance (addiction) liability” value [2] is given as “retain a certain degree of opiate dependance liability” and the “opiate antagonist / agonist properties” value [2] is given as “both antagonists and agonists”.

— patent publication US4001248A, “N-cycloalkylmethyl decahydroisoquinolines” (Eli Lilly and Company, priority 1974, dated 1977)
